This is an account of results in ChEMBL document CHEMBL4033610, “Analogues of the Potent Antitumor Compound Leiodermatolide from a Deep-Water Sponge of the Genus Leiodermatium” (J Nat Prod, 2017).

The structures appear in SMILES notation.

In this assay the test system is ASPC1. Description: Cytotoxicity against human Aspc-1 cells incubated for 72 hrs by MTT assay. The assay is classed as functional, cell-based. Conditions: ASPC1, 72 h. (Formazan colour is commonly taken as a measure of viable cells.)

By IC50 is commonly meant the point on the concentration scale where inhibition reaches its midpoint. Turning to `C=C1[C@@H](C)[C@H](O)[C@H](C)[C@@H](OC(N)=O)/C=C\C=C/[C@H](C)[C@@H](/C(C)=C/C=C/C[C@]2(O)CC(=O)O[C@@H](CC)[C@@H]2C)OC(=O)CC[C@H]1OO`, the half-maximal inhibitory concentration (IC50) was 3700 nM. In other words, the single-digit micromolar range. For the compound `CC[C@@H]1OC(=O)C[C@@](O)(C/C=C/C=C(\C)[C@H]2OC(=O)CC/C=C(\C)[C@@H](C)[C@H](O)[C@H](C)[C@@H](OC(N)=O)/C=C\C=C/[C@@H]2C)[C@H]1C`, half-maximal inhibition (IC50) was put at 46 nM. Under `CC[C@@H]1OC(=O)C[C@@H](C/C=C/C=C(\C)[C@H]2OC(=O)CC/C=C(\C)[C@@H](C)[C@H](O)[C@H](C)[C@@H](OC(N)=O)/C=C\C=C/[C@@H]2C)[C@H]1C` stands 43 nM.
